Measurements as given in article PMC3770654, “Gastric Antimicrobial Peptides Fail to Eradicate Helicobacter pylori Infection Due to Selective Induction and Resistance” (PLoS ONE, 2013).

Assays:
Type in all cases: cell-based
P. aeruginosa = assay: Killing of P. aeruginosa by elafin (data not shown)
[1] = tested on: H. pylori KaE1, DSM 9691, DSM 10242 and DSM 21031; assay: Flow cytometric viability assay with DiBAC4(3), four H. pylori strains
Experimental: (§1) The clinical isolate H. pylori KaE1 and the reference strains H. pylori DSM 9691, DSM 10242 and DSM 21031 were tested for susceptibility towards defensins, LL37 and elafin (amino acid sequences Table S1). The strain H. pylori DSM 10242 is positive for the virulence factors VacA and CagA. As control strain for antimicrobial activity served the sensitive E. coli ATCC 25922.
(§2) H. pylori strains were cultured on Columbia blood agar at 37 C° for 2 days in a microaerophilic atmosphere with CampyGen (Oxoid, Hampshire, UK). Subsequently the bacteria were suspended in Schaedler Broth (BD, Sparks, USA) diluted 1:6 with aqua dest. for incubation with antimicrobial peptides.
(§3) Bacterial viability after incubation with antimicrobial peptides or biopsy extracts was analyzed with the membrane potential sensitive dye DiBAC4(3) (bis-(1,3-dibutylbarbituric acid) trimethine oxonol) (Invitrogen, Carlsbad, CA, USA) as described previously. Briefly, 1.5x10^6 mid-logarithmic-phase bacteria/ml of H. pylori or E. coli in Schaedler Broth 1:6 were incubated with 20 µg/ml HBD1-4 (Peptide Institute, Osaka, Japan), elafin (Proteo Biotech, Kiel, Germany for FACS analysis and RDA and elafin from Peptide Institute, Osaka for CFU determination), with LL37 (Innovagen, Lund, Sweden) or with 10 µg total protein of antrum biopsy extracts at 37°C. After 90 minutes 1 µg/ml DiBAC4(3) was added to the suspensions and further incubated for 10 minutes. Then, the suspensions were centrifuged with 4500 x g for 10 minutes, pellets resuspended in 300 µl PBS and bacterial fluorescence was analyzed by a FACSCalibur^TM (BD, Sparks, USA), using Cell Quest software (BD, Sparks, USA). In each sample 10000 bacterial events were analyzed for green fluorescence and the antimicrobial activity was determined as percentage of depolarized, fluorescent bacteria. Inhibition of bacterial growth was tested by plating aliquots on Columbia blood agar and incubating at 37 C° for 2 days in a microaerophilic atmosphere with CampyGen (Oxoid, Hampshire, UK). Then colony forming units (CFU) were counted.

H. pylori DMS 9691 = assay: Plating on Columbia blood agar with CFU counting; settings: peptide 20 µg/ml, means of two independent experiments, control 8.85 x 10^5
Experimental: as §2, §3

H. pylori KaE = assay: Plating on Columbia blood agar with CFU counting; settings: peptide 20 µg/ml, means of two independent experiments, control 1.42 x 10^6
Experimental: as §2, §3

H. pylori DSM 10242 = assay: Plating on Columbia blood agar with CFU counting; settings: peptide 20 µg/ml, means of two independent experiments, control 6.10 x 10^5
Experimental: as §2, §3

H. pylori DSM 21031 = assay: Plating on Columbia blood agar with CFU counting; settings: peptide 20 µg/ml, means of two independent experiments, control 7.45 x 10^5
Experimental: as §2, §3

[2] = tested on: H. pylori KaE1, DSM 9691, DSM 10242 and DSM 21031; assay: Radial diffusion assay, four H. pylori strains; settings: all four Helicobacter strains; 20 µg peptide per well, 3 days, 37 °C, microaerophilic
Experimental: Additionally to determine inhibition of bacterial growth we performed radial diffusion assays with a modified protocol of the procedure from Robert Lehrer et al.. Briefly, H. pylori was grown on Columbia blood agar (BD, Sparks, USA), suspended in Brain Heart Infusion diluted 1:5 with aqua dest. and plated on an agar containing 20% brain heart infusion with 5% fetal calf serum. Wells with 3 mm diameter were punched into the agar and peptides were applied equivalent to the flow cytometric assay in a concentration of 20 µg per well. The agar plates were incubated for 3 days at 37 °C in a microaerophilic atmosphere with CampyGen.

E. coli ATCC 25922 = assay: Flow cytometric viability assay with membrane potential sensitive dye DiBAC4(3)
Experimental: as §1, §3

## Ala - Gln - Glu - Pro - Val - Lys - Gly - Pro - Val - Ser - Thr - Lys - Pro - Gly - Ser - Cys - Pro - Ile - Ile - Leu - Ile - Arg - Cys - Ala - Met - Leu - Asn - Pro - Pro - Asn - Arg - Cys - Leu - Lys - Asp - Thr - Asp - Cys - Pro - Gly - Ile - Lys - Lys - Cys - Cys - Glu - Gly - Ser - Cys - Gly - Met - Ala - Cys - Phe - Val - Pro - Gln (disulfide) [Elafin, epithelial antiprotease elafin (PI3), cationic, 4 disulphide bridges; Proteo Biotech or Peptide Institute]
P. aeruginosa
  killing of P. aeruginosa: limited killing
[1]; H. pylori, elafin peptides from different companies
  bactericidal effect: no bactericidal effect
[1]; all 4 H. pylori strains, 20 µg/ml peptide, Schaedler Broth 1:6, 37°C, 90 minutes, DiBAC4(3)
  depolarized bacteria: less than 5%
H. pylori DMS 9691
  Colony forming units: 9.59 x 10^5 CFU/ml
H. pylori KaE
  Colony forming units: 1.29 x 10^6 CFU/ml
H. pylori DSM 10242
  Colony forming units: 4.85 x 10^5 CFU/ml
H. pylori DSM 21031
  Colony forming units: 6.82 x 10^5 CFU/ml
[2]
  zones of inhibition in radial diffusion assay: no zones of inhibition
E. coli ATCC 25922; 20 µg/ml peptide, 1.5x10^6 bacteria/ml in Schaedler Broth 1:6, 37°C, 90 minutes, then DiBAC4(3) 10 minutes, 10000 events
  depolarized bacteria: 4%
E. coli ATCC 25922; E. coli, elafin peptides from different companies
  bactericidal effect: no bactericidal effect
